Results from article PMC3107544 (Biochemistry, 2010).
Read-outs that look alike come from different tables or passages of the source. Marks after values point to notes of the source that are not given here.

Tests used:
[1] = molecular target: T1, 5-HT2A receptor (Rattus norvegicus, UniProt P14842); assay: cell-based; conditions: for EC50: pEC50 ± SEM
[2] = molecular target: 5-HT2A receptor (Mus musculus, UniProt P35363); conditions: RSK2+/+ mVSMCs; 100nM
[3] = system: 5-HT2A-mediated Ca^2+ responses; assay: Growth factor attenuation of 5-HT2A-mediated Ca^2+ responses in MEFs; type: cell-based, mouse
[4] = system: RSK2; assay: Immunoprecipitation and immunoblot of RSK2 activation; type: cell-based, mouse; conditions: for maximal activation of RSK2 (sum pixel intensity normalized to total RSK2): RSK2+/+ MEFs, 5 min, EGF 100ng/mL or IGF-1 10nM
[5] = molecular target: IGF-1 R (Mus musculus, UniProt Q60751); assay: Immunoblot of IGF-1 R phosphorylation; type: cell-based; conditions: RSK2+/+ MEFs; 10 nM
Chain of IGF-1 R (Q60751 31-737 limits assumed): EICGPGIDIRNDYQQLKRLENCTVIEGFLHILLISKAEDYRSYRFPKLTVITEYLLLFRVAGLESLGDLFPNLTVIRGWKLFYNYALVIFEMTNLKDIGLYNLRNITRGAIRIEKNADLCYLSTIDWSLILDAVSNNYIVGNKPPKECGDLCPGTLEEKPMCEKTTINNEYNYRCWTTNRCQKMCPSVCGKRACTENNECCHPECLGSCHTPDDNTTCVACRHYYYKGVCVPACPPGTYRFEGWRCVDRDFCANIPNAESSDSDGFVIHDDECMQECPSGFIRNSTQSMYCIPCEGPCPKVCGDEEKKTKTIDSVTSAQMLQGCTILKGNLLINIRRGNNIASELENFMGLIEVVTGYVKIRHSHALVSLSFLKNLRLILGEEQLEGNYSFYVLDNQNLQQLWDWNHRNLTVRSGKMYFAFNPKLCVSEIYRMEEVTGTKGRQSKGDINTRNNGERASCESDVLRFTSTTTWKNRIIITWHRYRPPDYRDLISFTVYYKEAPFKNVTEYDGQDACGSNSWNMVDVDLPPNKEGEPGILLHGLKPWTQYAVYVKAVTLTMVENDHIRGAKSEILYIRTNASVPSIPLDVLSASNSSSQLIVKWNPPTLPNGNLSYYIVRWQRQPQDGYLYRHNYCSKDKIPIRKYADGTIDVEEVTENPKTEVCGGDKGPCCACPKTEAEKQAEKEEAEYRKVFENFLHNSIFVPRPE
Chain of IGF-1 R (Q60751 742-1373 limits assumed): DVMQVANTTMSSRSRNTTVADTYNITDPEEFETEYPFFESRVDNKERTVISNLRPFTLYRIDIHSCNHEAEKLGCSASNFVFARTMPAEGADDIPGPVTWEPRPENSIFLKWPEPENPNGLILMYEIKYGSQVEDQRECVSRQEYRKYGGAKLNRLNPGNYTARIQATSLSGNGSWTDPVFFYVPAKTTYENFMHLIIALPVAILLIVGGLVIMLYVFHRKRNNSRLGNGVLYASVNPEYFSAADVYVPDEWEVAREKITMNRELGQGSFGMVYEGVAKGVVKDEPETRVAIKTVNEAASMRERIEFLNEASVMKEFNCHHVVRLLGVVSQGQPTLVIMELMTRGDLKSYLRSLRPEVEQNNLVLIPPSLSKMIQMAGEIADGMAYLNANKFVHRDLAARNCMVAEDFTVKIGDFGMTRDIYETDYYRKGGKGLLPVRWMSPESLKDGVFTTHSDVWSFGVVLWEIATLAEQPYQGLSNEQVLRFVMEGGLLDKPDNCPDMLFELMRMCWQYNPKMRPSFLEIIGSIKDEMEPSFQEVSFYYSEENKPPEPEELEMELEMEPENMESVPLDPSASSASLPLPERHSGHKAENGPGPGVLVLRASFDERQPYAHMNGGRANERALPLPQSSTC

[6] = system: 5-HT2A receptor; type: cell-based, rat; conditions: uninfected cortical neurons; DOI 1μM
[7] = molecular target: T1, 5-HT2A receptor; type: cell-based; conditions: DOI 1μM, infected RSK2+/+ cortical neurons
[8] = molecular target: P2Y purinergic receptor; type: cell-based, RSK2−/− mouse embryonic fibroblasts
[9] = molecular target: P2Y purinergic receptor; type: cell-based, RSK2+/+ mouse embryonic fibroblasts
[10] = molecular target: P2Y purinergic receptor; type: cell-based, RSK2−/− mouse embryonic fibroblasts; remark: listed apart in the source
[11] = molecular target: P2Y purinergic receptor; type: cell-based, RSK2+/+ mouse embryonic fibroblasts; remark: listed apart in the source
[12] = molecular target: P2Y purinergic receptor; type: cell-based, RSK2+/+ mouse embryonic fibroblasts; remark: listed apart in the source
[13] = molecular target: P2Y purinergic receptor; type: cell-based, RSK2−/− mouse embryonic fibroblasts; remark: listed apart in the source
[14] = system: P2Y purinergic receptor; assay: FLIPR Tetra P2Y-mediated Ca^2+ responses in MEFs; type: cell-based, mouse; conditions: for EC50: read-out: potency (EC50)
[15] = system: 5-HT2A-mediated Ca^2+ responses; assay: Growth factor attenuation of 5-HT2A-mediated Ca^2+ responses in mVSMCs; type: cell-based, mouse; conditions: saturating 5-HT 10μM, 60 min treatment
[16] = RSK2+/+ MEFs, EGF 100ng/mL 0 min (untreated)
[17] = RSK2+/+ MEFs, EGF 100ng/mL 60 min
[18] = RSK2−/− MEFs, EGF 100ng/mL 0 min (untreated)
[19] = RSK2−/− MEFs, EGF 100ng/mL 60 min

Chain of 5-HT2A receptor (Mus musculus, UniProt P35363) (P35363 whole entry): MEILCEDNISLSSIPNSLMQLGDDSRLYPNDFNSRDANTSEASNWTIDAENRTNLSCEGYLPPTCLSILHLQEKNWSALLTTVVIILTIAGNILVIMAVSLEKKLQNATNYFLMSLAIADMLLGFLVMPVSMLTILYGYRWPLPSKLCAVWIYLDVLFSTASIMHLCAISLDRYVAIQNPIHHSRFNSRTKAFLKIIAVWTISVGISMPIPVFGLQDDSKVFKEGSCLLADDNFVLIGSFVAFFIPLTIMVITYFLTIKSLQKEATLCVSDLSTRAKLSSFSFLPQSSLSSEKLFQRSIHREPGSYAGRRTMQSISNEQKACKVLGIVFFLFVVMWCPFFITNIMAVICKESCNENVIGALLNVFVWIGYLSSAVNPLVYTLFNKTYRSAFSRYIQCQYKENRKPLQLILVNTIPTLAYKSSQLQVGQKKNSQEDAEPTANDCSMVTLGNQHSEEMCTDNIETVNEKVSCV

Molecule: COc1ccc2[nH]cc(CCN(C)C)c2c1 [5-methoxy DMT, 5-methoxy-N,N-dimethyltryptamine]
- EC50 [1, 16]: 25.7 nM
- EC50 [1, 17]: 67.6 nM
- EC50 [1, 18]: 89.1 nM
- EC50 [1, 19]: 89.1 nM
- Emax ([1]; read-out: Emax± SEM, %, RSK2+/+ MEFs, EGF 100ng/mL 0 min (untreated)): 86.7%
- Emax ([1]; read-out: Emax± SEM, %, RSK2+/+ MEFs, EGF 100ng/mL 60 min): 79.6%
- Emax ([1]; read-out: Emax± SEM, %, RSK2−/− MEFs, EGF 100ng/mL 0 min (untreated)): 80.4%
- Emax ([1]; read-out: Emax± SEM, %, RSK2−/− MEFs, EGF 100ng/mL 60 min): 79.1%

Molecule: COc1cccc([C@H](O)C2CCN(CCc3ccc(F)cc3)CC2)c1OC [MDL100907]
- block of 5-HT-elicited Ca^2+ responses [2]: blocked

Molecule: TGF-α: transforming growth factor-alpha, selective and potent EGFR agonist
- IC50 for attenuation of 5-HT2A-mediated Ca^2+ responses ([3]; RSK2+/+ MEFs): 4.1 ng/mL

Molecule: IGF-1: insulin-like growth factor 1, activates the IGF-1 R
- maximal activation of RSK2 (sum pixel intensity normalized to total RSK2) [4]: 0.546 × 10^6 +/− 0.107 × 10^6
- activation of IGF-1 R (Tyr(P)1158/1162/1163) [5]: activated

Molecule: COc1cc(CC(C)N)c(OC)cc1I.Cl (racemic) [DOI, (±)-2,5-dimethoxy-4-iodoamphetamine hydrochloride]
- Ca^2+ response in uninfected neurons [6]: unresponsive
- Area under curve ([7]; EGF 100ng/mL 60 min): 20.9 +/− 1.2 ^b
- Area under curve ([7]; NRG-1 100ng/mL): 28.6 +/− 1.7 ^b
- Area under curve ([7]; RTK ligand None): 33.7 +/− 1.3

Molecule: Nc1ncnc2c1ncn2[C@@H]1O[C@H](COP(=O)(O)OP(=O)(O)OP(=O)(O)O)[C@@H](O)[C@H]1O [ATP, adenosine 5'-triphosphate]
- RSK2−/− MEFs, 0 min, pEC50 ± SEM [8]: 5.37 +/− 0.09
- RSK2+/+ MEFs, 30 min, pEC50 ± SEM [9]: 4.95 +/− 0.06 ^d
- RSK2−/− MEFs, 30 min, pEC50 ± SEM [10]: 5.34 +/− 0.09
- RSK2+/+ MEFs, 0 min, pEC50 ± SEM [11]: 5.16 +/− 0.05
- RSK2+/+ MEFs, 60 min, pEC50 ± SEM [12]: 4.88 +/− 0.09 ^d
- RSK2−/− MEFs, 60 min, pEC50 ± SEM [13]: 5.30 +/− 0.09

Molecule: EGF: human epidermal growth factor, canonical EGFR agonist
- IC50 for attenuation of 5-HT2A-mediated Ca^2+ responses ([3]; RSK2+/+ MEFs): 1.3 ng/mL
- peak Ca^2+ release ([3]; RSK2+/+ MEFs, 10nM 5-HT, 100ng/mL EGF 1hr, parallel control of IGF-1 experiments): 80.7 +/− 2.3%
- maximal activation of RSK2 (sum pixel intensity normalized to total RSK2) [4]: 1.25 × 10^6 +/− 0.25 × 10^6

Molecule: insulin: insulin, tested for attenuation of 5-HT2A receptor signaling in MEFs
- effect on 5-HT2A receptor signaling ([3]; MEFs, data not shown): no effect
- activation of RSK2 ([4]; MEFs, data not shown): modest activation

Molecule: Nc1ncnc2c1ncn2[C@@H]1O[C@H](COP(=O)(O)OP(=O)(O)OP(=O)(O)O)[C@@H](O)[C@H]1O [ATP]
- Emax± SEM, % [14, 16]: 99.7 +/− 2.0%
- Emax± SEM, % ([14]; RSK2+/+ MEFs, EGF 100ng/mL 30 min): 88.4 +/− 2.5 ^d %
- Emax± SEM, % [14, 17]: 82.5 +/− 3.2 ^d %
- Emax± SEM, % [14, 18]: 98.6 +/− 3.3%
- Emax± SEM, % ([14]; RSK2−/− MEFs, EGF 100ng/mL 30 min): 93.4 +/− 3.2%
- Emax± SEM, % [14, 19]: 100 +/− 3.5%
- EC50 ([14]; RSK2+/+ MEFs, 60 min EGF treatment): 13000 nM
- EC50 ([14]; RSK2+/+ MEFs, untreated): 7000 nM

B1: PDGF-BB: human platelet-derived growth factor BB, PDGFR ligand (protein, UniProt P01127 82-190, looked up)
Platelet-derived growth …: SLGSLTIAEPAMIAECKTRTEVFEISRRLIDRTNANFLVWPPCVEVQRCSGCCNNRNVQCRPTQVQLRPVQVRKIEIVRKKPIFKKATVTLEDHLACKCETVAAARPVT
- peak Ca^2+ release ([15]; RSK2+/+ cells): 67.0 +/− 8.5%
- peak Ca^2+ release ([15]; RSK2−/− cells): 77.9 +/− 7.6%
